From patent US8790898B2 (priority 2008, dated 2014)
Where “and” joins values, the source holds several entries; their conditions need not be identical. Equal entries are not always repeated. Entries after “also recorded” stand apart in the source; their conditions may differ. Where two headings read alike, the source gives them in different places.

Experiments:
HIV-1 BZ 167 [1] = type: cell-based
[2] = system: CBD1 peptide and CBD1- and CBM-based peptides; parameters: species or system BALB/c mice; settings: mouse, in vivo; for ELISA titer against C17K / IgG2/IgG1 ratio / ELISA against the Immunogen (OD) / ELISA C17K / ELISA K23M / ELISA K24W / ELISA K27M / ELISA K27W / ELISA K27W(G) / ELISA K30W(G) / ELISA p6362: sc; as to ELISA C17K: test concentration or dose not given here; as to ELISA K24W: test concentration or dose not given here; as to ELISA K27W(G): test concentration or dose not given here; as to ELISA K27W: test concentration or dose not given here; as to ELISA K30W(G): test concentration or dose not given here; as to ELISA against the Immunogen (OD): test concentration or dose not given here; as to ELISA p6362: test concentration or dose not given here
HIV-1 BZ 167 [3] = type: cell-based; settings: for Inhibition of HIV-infection: 50-fold dilution of guinea pig immune sera (bleeds S5), HIV-1 BZ 167, p24 at 5 days post infection
[4] = molecular target: CBD1, C13K, CBD1/A and C10M peptides and the CBD1-KLH Construct (Human immunodeficiency virus type 1 group M subtype B, UniProt P04578, E630Q/H625N/T626M); settings: guinea pig, in vivo
[5] = system: CBD1, C13K, CBD1/A and C10M peptides and the CBD1-KLH Construct; settings: guinea pig, in vivo
[6] = molecular target: CBD1, C13K, CBD1/A and C10M peptides and the CBD1-KLH Construct (Human immunodeficiency virus type 1 group M subtype B, UniProt P04578); settings: guinea pig, in vivo
[7] = system: IgG antibodies in human HIV-1 positive sera; type: binding; settings: sera at 1000-fold dilution

Substance	% inhibition of HIV-1 at 200-fold dilution (HIV-1 BZ 167 [1])	Neutralizing activity ID50 (HIV-1 BZ 167 [1])	ELISA titer against C17K [2]	% Inhibition of HIV-1 infection at 200-fold dilution (HIV-1 BZ 167 [1])	Neutralizing activity ID50 Fold-Dilution (HIV-1 BZ 167 [1])	ELISA against the Immunogen (OD) [2] [OD]	ELISA C17K [2]	ELISA K23M [2]	ELISA K24W [2]	ELISA K27M [2]	ELISA K27W [2]	ELISA K27W(G) [2]	ELISA K30W(G) [2]	ELISA p6362 [2]	other results
AQYIKANSKFIGITELKKCSLEQIWNNMTWMQWDK (AQYIKANSKFIGITELKKCSLEQIWNNMTWMQWDK) [A35K]	42%	150-fold	0.61 ± 0.35												difference in the degree of neutralization of HIV-1 infection versus anti-CBD1 immune sera (HIV-1 BZ 167 [1]): less than 2 fold; production of anti-CBD1 peptide antibodies, fold lower compared to the CBD1 peptide alone [2]: at least 3 fold; IgG2/IgG1 ratio [2]: 1.56
AQYIKANSKFIGITELKKIWNNMTWMQWDK (AQYIKANSKFIGITELKKIWNNMTWMQWDK) [A30K]	45%	150-fold	0.83 ± 0.44												IgG2/IgG1 ratio [2]: 3.24
C-I-W-N-N-M-T-W-M-Q-W-D-K (CIWNNMTWMQWDK) [C13K]	None	None	0.03 ± 0.02												Inhibition of HIV-infection (HIV-1 BZ 167 [3]): No Effect; ELISA CBD1 (titer) [4]: <200; ELISA C13K (titer) [5]: 400 and 200; ELISA CBD1/A (titer) [5]: <200; ELISA KLH (titer against the CBD1-KLH construct) [5]: <200; ELISA C10M (titer) [6]: <200
C-S-L-E-Q-I-A-N-N-M-T-A-M-Q-A-D-K (CSLEQIANNMTAMQADK) [CBD1/A]															Inhibition of HIV-infection (HIV-1 BZ 167 [3]): no apparent neutralizing activity; also recorded: No Effect; Inhibition of HIV infection (HIV-1 BZ 167 [3]; 100 fold dilution of guinea pig immune serum (bleeds S5), HIV-1 BZ 162, human CD4+ T lymphocytes): did not inhibit; ELISA CBD1 (titer) [4]: 20,000 and 16,000; ELISA C13K (titer) [5]: 2,000 and 1,000; ELISA CBD1/A (titer) [5]: 128,000; ELISA KLH (titer against the CBD1-KLH construct) [5]: <200; ELISA C10M (titer) [6]: 16,000
C-S-L-E-Q-I-W-N-N-M (CSLEQIWNNM) [C10M]				No Effect	No Effect	<0.10									
CKSLEQIWNNMTWMQWDK [C18K]	65%	250-fold	1.75 ± 0.60												
KQIINMWQVVGKAMYAKKCKSLEQIWNNMTWMQWDK (KQIINMWQVVGKAMYAKKCKSLEQIWNNMTWMQWDK)	45%	150-fold	1.07 ± 0.33												
KRWIILGLNKIVRMYGPGPGIWNNMTW [K27W(G)]				16%	100-fold	0.73	<0.20	<0.20	<0.20	<0.20	<0.20	0.66 ± 0.22	<0.20	<0.20	
KRWIILGLNKIVRMYGPGPGIWNNMTWMQW [K30W(G)]				81%	450-fold	1.45	<0.20	<0.20	<0.20	<0.20	<0.20	<0.20	1.23 ± 0.55	<0.20	
KRWIILGLNKIVRMYKKCKSLEQIWNNMTWMQWDK	51%	200-fold	1.72 ± 0.46												
KRWIILGLNKIVRMYKKCSLEQIWNNM [K27M]				65%	250-fold	1.38									
KRWIILGLNKIVRMYKKIWDNMTWMEW [K27W-2]				<10%	100-fold	2.01	<0.20	<0.02	<0.02	<0.20	0.22 ± 0.08	2.01 ± 0.73	<0.20	<0.20	
KRWIILGLNKIVRMYKKIWNNM [K23M]				11%	100-fold	0.66	<0.20	0.53	<0.20	<0.20	<0.20	<0.20	<0.20	<0.20	immunized mice that developed peptide specific antibodies [2]: 1 out of the five and ^aOnly 1 out of five mice immunized with the K23M peptide developed anti-K23M specific antibodies.
KRWIILGLNKIVRMYKKIWNNMTW [K24W]				88%	450-fold	1.55	<0.20	0.45 ± 0.40	1.41 ± 0.55	0.87 ± 0.15	0.21 ± 0.15	1.88 ± 0.66	<0.20	<0.20	
KRWIILGLNKIVRMYKKIWNNMTWMQW [K27W]				65%	300-fold	1.64	0.24 ± 0.12	<0.20	<0.20	<0.20	1.49 ± 0.75	<0.20	2.25 ± 0.20	<0.20	
KRWIILGLNKIVRMYKKIWNNMTWMQWDK [K29K]	62%	250-fold	1.80 ± 0.62												IgG2/IgG1 ratio [2]: 4.95
KLH-CSLEQIWNNMTWMQWDK [KLH-C17K]															Inhibition of HIV-infection (HIV-1 BZ 167 [3]): No Effect; ELISA CBD1 (titer) [4]: <200; ELISA C13K (titer) [5]: <200; ELISA CBD1/A (titer) [5]: <200; ELISA KLH (titer against the CBD1-KLH construct) [5]: <200; ELISA C10M (titer) [6]: <200
RGDAQYIKANSKFIGITELKKIWNNMTWMQWDK (RGDAQYIKANSKFIGITELKKIWNNMTWMQWDK) [R33K]	64%	200-fold	1.66 ± 0.37												IgG2/IgG1 ratio [2]: 4.05
SLEQIWNNMTWMQWDK [CBD1 peptide 618-633]															HIV-1 positive sera reacting in ELISA / sera tested ([7]; Brazil, n = 22): 1/22; mean OD 450 nm ± S.D. of reacting sera ([7]; Brazil, n = 22): 0.75 OD; HIV-1 positive sera reacting in ELISA / sera tested ([7]; Chili, n = 24): 1/24; mean OD 450 nm ± S.D. of reacting sera ([7]; Chili, n = 24): 0.30 OD; HIV-1 positive sera reacting in ELISA / sera tested ([7]; France, n = 81): 4/81; mean OD 450 nm ± S.D. of reacting sera ([7]; France, n = 81): 0.33 ± 0.05 OD
